This is an account of results in US10203334B2, “Methods and compositions related to nucleic acid binding assays” (Nubad, LLC, priority 2012, dated 2019).

Series [1] relates to A-site RNA oligonucleotide (SEQ ID No. 1). In kind it is physicochemical, E. coli. The protocol: The effect of A-site rRNA oligonucleotide (SEQ ID No. 1) on the absorbance spectra of fluorescein-neomycin at pH 7.1 was recorded in FIG. 7. The absorbance spectra of 3.0 mM fluorescein-neomycin in 20 mM MOPSO, 0.4 mM EDTA, 50 mM NaCl at pH 7.1 with the addition of 0 mM (112), 1.1 mM (114), 2.2 mM (116) or 3.3 mM (118) of A-site oligonucleotide (SEQ ID NO. 1), respectively is shown in FIG. 7A. Absorbance at 490 nm of fluorescein-neomycin:A-site complex as function of pH is show in FIG. 7B, with 3.0 mM fluorescein-neomycin complexed with 3.3 mM A-site oligonucleotide (SEQ ID No. 1) in 20 mM MOPSO, 0.4 mM EDTA, 50 mM NaCl at the indicated pH values.
With increasing pH, fluorescein-neomycin undergoes a transition between mono-anion and di-anion species. Fluorescein-neomycin concentration was 10 μM in 100 mM NaCl, 10 mM SC, 0.5 mM EDTA. As indicated by its absorbance spectra in FIG. 8A, the F-neo transitions from a mono-anion to a di-anion with increasing pH. FIG. 8B compares the absorbance spectra between the mono-anion and di-anion species of fluorescein neomycin. […] The absorbance peak of about 490 nm in FIGS. 8A and 8B is consistent with the phenolate species of fluorescein. The pKa for the equilibrium of the phenol and phenolate forms of F-neo (42a) was measured by evaluating the absorbance spectrum as a function of pH and shown to be 6.84. […] When monitoring the absorption spectrum in the presence of the A-site RNA (SEQ ID No. 1), a reduction in A490 consistent with the change in pKa was observed. This A490 reduction is consistent with a shift in equilibrium towards the protonated non-fluorescent form of fluorescein-neomycin upon binding to A-site. […] This shift in pKa causes a change in the fluorescence intensity of F-neo (42a).
The following equilibrium can be used to explain the probe function: FHNeo+Base=F(−)Neo+BH^+ Eq. (2) where FHNeo represents the protonated form of F-neo (42a). Upon binding to A-site RNA, F(−)Neo is destabilized by the negative potential of the RNA backbone, shifting the equilibrium towards FHNeo. Thus the binding of F-neo (42a) to RNA raises the pKa, making F-neo (42a) a weaker acid.
The local electrostatic potential (Ψ) in the major groove is given by the following Equation 3. Ψ=−[R·T·ln 10/(NA·e)]ΔpKa Eq. (3) Where ΔpKa is the difference between the free Fluorescein-neomycin and the Fluorescein-neomycin in the presence of the electrostatic environment, R is the universal gas constant, T is the absolute temperature in kelvin, NA is the Avogadro constant, and e is the elementary charge. R=8.312 J mol−1K−1, T=298.2K, NA=6.023×10^23 and e=1.602×10^−19; Ψ is expressed in mV. […] Based on this Δpka of 0.86, the electrostatic potential of the microenvironment for the fluorescein moiety in the complex is determined to be −50.9 mV.

Series [2] deals with E. coli ribosomal A-site (SEQ ID No. 1). Briefly: Quenching of F-neo by ribosomal A-site mimics, 96-well. It counts as binding. Particulars: 0.1 μM RNA to 0.1 μM F-neo (42a); em 535 nm, ex 485 nm; ten wells averaged. The protocol: (§1) Disclosed is an HTS showing the difference in the binding affinity of fluorescene-neomycin (F-neo (42a)) to various synthetic RNA sequence 27 bases long designed to mimic the ribosomal A-site using a 96 well plate format and a fluorescent plate reader. Differences in binding are determined by the differential quenching of F-neo (42a) upon binding to the RNA.
(§2) Following the SOP's established for F-neo (42a) binding to E. coli A-site, each sequence was added at 0.1 μM RNA to 0.1 μM F-neo (42a) using 100 reads/well using a Tecan Genios Pro plate reader in a 96 well Greiner black plate. The emission was measured at wavelength 535 nm, using an excitation wavelength of 485 nm. All experiments were performed in 10 mM hepes (7.0), 50 mM NaCl, and 0.4 mM EDTA.

For series [3], the system named is human ribosomal A-site (SEQ ID NO. 2). The description is as above. In kind it is binding. Particulars: 0.1 μM RNA to 0.1 μM F-neo (42a); em 535 nm, ex 485 nm; ten wells averaged. Here is the method:
as §1, §2

The test system of series [4] is mitochondria ribosomal A-site (SEQ ID NO. 3). The series is described as above. It counts as binding. Particulars: 0.1 μM RNA to 0.1 μM F-neo (42a); em 535 nm, ex 485 nm; ten wells averaged. The protocol: as §1, §2
The subject of series [5] is mutant mitochondria ribosomal A-site (SEQ ID NO. 4). The series is described as above. It counts as binding. Particulars: 0.1 μM RNA to 0.1 μM F-neo (42a); em 535 nm, ex 485 nm; ten wells averaged. Here is the method: as §1, §2
Series [6] relates to DNA triplex poly(dA).2poly(dT). In words: Competition dialysis. It counts as binding. From the text:
Disclosed is the use of fluorescent aminosugar probes such as F-neo (42a) to probe a variety of nucleic acid targets. Competition dialysis was used as a nucleic acid screening technique to illustrate the binding of F-neo (42a) to different nucleic acid structures.
Competition dialysis studies using a fluorescein-neomycin conjugate (F-neo (42a)). […] Comparative binding of F-neo (42a) to 13 different nucleic acid structures was examined which included single strand nucleic acids [poly(dT), poly(A), poly(U)], duplexes [poly(dA).poly(dT), poly(rA).poly(dT), poly(rA).poly(rU), poly(dA).poly(rU), poly(dG).poly(dC), calf thymus], triplexes [poly(dA).2poly(dT), poly(rA).2poly(rU)], i-motif (polydC) and 16S A-site rRNA (SEQ ID No. 1). The amount of F-neo (42a) bound to each nucleic acid is shown as a bar graph in FIG. 13. Because all nucleic acids are dialyzed simultaneously in the same ligand solution, the amount of bound F-neo (42a) is directly proportional to its affinity for each nucleic acid. […] 200 μL of different nucleic acids (7.5 μM per monomeric unit of each polymer) was dialyzed for 72 h with 400 mL 100 nM ligand in 6 mM Na2HPO4, 2 mM NaH2PO4, 1 mM Na2EDTA, pH 7.0 and various Na+ concentrations as indicated.
F-neo (42a) prefers to bind to 16S A-site rRNA yielding a bound ligand concentration of 85 nM in 100 mM Na^+, 50 nM in 150 mM Na^+, and 15 nM in 200 mM Na^+ is shown in FIG. 15. […]

As for `NCC1O[C@H](OC2C(O)C(OC3C(O)[C@H](N)CC(N)[C@H]3O[C@H]3OC(CN)[C@@H](O)C(O)C3N)O[C@@H]2CSCCNC(=O)CCSCC(=O)Nc2ccc(-c3c4ccc(=O)cc-4oc4cc(O)ccc34)c(C(=O)O)c2)C(N)C(O)[C@@H]1O` (stereo partly shown) [F-neo (42a), Neomycin-Fluorescein Conjugate], the “electrostatic potential of the microenvironment for the fluorescein moiety in the complex” value in series [1] (calculated from Δpka (Eq. 3)) is given as −50.9 mV. This compound came in with a Δpka in series [1] (complex versus free probe) of 0.86. For the same compound, in series [1] (pH-dependent absorbance spectra), the “apparent pKa of F-neo/A-site oligonucleotide complex” value is on record as 7.7. Further, the “upward shift of the pKa upon binding of A-site” value in series [1] (titration curve of A490) is recorded as “approximately one”. In addition, the “fluorescence of F-neo with RNA” value in series [2] is 7963 (±221); in series [3], 9503 (±208); in series [4], 11987 (±445); in series [5], 8515 (±230). Further, in series [6] (100 mM Na^+, ambient temperature (˜22° C.), triplex not formed), the “binding to poly(dA).2poly(dT)” value is recorded as “absence of F-neo (42a) binding”. In addition, the bound drug in series [6] (under these salt conditions (100-200 mM Na^+)) was in the range of 10 to 20 nM.
